This is an account of results in PubChem BioAssay AID1259407 (Chemical Carcinogenesis Research Information System (CCRIS), 2018).

Calls of active or inactive are those of the source. The rule behind the calls is not given here.

This series has as its system CCRIS mutagenicity, Ames/micronucleus/aberration tests. Description: CCRIS mutagenicity studies.
The mark [1] stands for this setting: Test System: AMES SALMONELLA TYPHIMURIUM, Strain/Indicator: TA98, Metabolic Activation: NONE, Method: STANDARD PLATE.
[2] abbreviates: Test System: AMES SALMONELLA TYPHIMURIUM, Strain/Indicator: TA98, Metabolic Activation: RAT, LIVER, S-9, AROCLOR 1254, Method: STANDARD PLATE.
[3] abbreviates: Test System: AMES SALMONELLA TYPHIMURIUM, Strain/Indicator: TA100, Metabolic Activation: NONE, Method: STANDARD PLATE.
[4] abbreviates: Test System: AMES SALMONELLA TYPHIMURIUM, Strain/Indicator: TA100, Metabolic Activation: RAT, LIVER, S-9, AROCLOR 1254, Method: STANDARD PLATE.
[5] abbreviates: Test System: AMES SALMONELLA TYPHIMURIUM, Strain/Indicator: TA98, Metabolic Activation: NONE, Method: PREINCUBATION
The mark [6] stands for this setting: Test System: AMES SALMONELLA TYPHIMURIUM, Strain/Indicator: TA100, Metabolic Activation: NONE, Method: PREINCUBATION

As to `Nc1cccc2cc3ccccc3cc12`, the mutagenic call was “inactive; negative” under setting [1]; “inactive; negative” (Test System: AMES SALMONELLA TYPHIMURIUM, Strain/Indicator: TA98, Metabolic Activation: RAT LIVER, CYTOSOL, AROCLOR 1254, Method: STANDARD PLATE); “active; positive” (Test System: AMES SALMONELLA TYPHIMURIUM, Strain/Indicator: TA98, Metabolic Activation: RAT LIVER, MICROSOMES, AROCLOR 1254, Method: STANDARD PLATE); “active; positive” (Test System: AMES SALMONELLA TYPHIMURIUM, Strain/Indicator: TA98, Metabolic Activation: RAT, LIVER, S-9, AROCLOR 1254 (2 OR 4%), Method: STANDARD PLATE); “active; positive” under setting [2]; “active; positive” (Test System: AMES SALMONELLA TYPHIMURIUM, Strain/Indicator: TA98, Metabolic Activation: RAT, LIVER, S-9, PHENOBARBITAL, Method: STANDARD PLATE). For the same molecule, the mutagenic call reads like this: under setting [3], “inactive; negative”; (Test System: AMES SALMONELLA TYPHIMURIUM, Strain/Indicator: TA100, Metabolic Activation: RAT, LIVER, S-9, AROCLOR 1254 (2%), Method: STANDARD PLATE) “inactive; negative”; under setting [4], “active; positive”; (Test System: AMES SALMONELLA TYPHIMURIUM, Strain/Indicator: TA100, Metabolic Activation: RAT, LIVER, S-9, PHENOBARBITAL, Method: STANDARD PLATE) “active; positive”; (Test System: AMES SALMONELLA TYPHIMURIUM, Strain/Indicator: TA1535, Metabolic Activation: RAT, LIVER, S-9, AROCLOR 1254 (2%), Method: STANDARD PLATE) “active; positive”; (Test System: AMES SALMONELLA TYPHIMURIUM, Strain/Indicator: TA1537, Metabolic Activation: RAT, LIVER, S-9, AROCLOR 1254 (2%), Method: STANDARD PLATE) “active; positive”. Further, the mutagenic call (Test System: MOUSE LYMPHOMA, Strain/Indicator: L5178Y (TK+/TK-), Metabolic Activation: RAT, LIVER, S-9, AROCLOR 1254, Method: SUSPENSION/PLATE) was “active; positive”.
Turning to `CCCCCN(CCCCO)N=O`, the mutagenic call (Test System: AMES SALMONELLA TYPHIMURIUM, Strain/Indicator: TA1535, Metabolic Activation: RAT, LIVER, S-9, KANECHLOR 500 OR PHENOBARBITAL, Method: LIQUID SUSPENSION) is “active; positive”.
With `O=C1C=CC(=O)c2c(O)ccc(O)c21`, the mutagenic call (Test System: AMES SALMONELLA TYPHIMURIUM, Strain/Indicator: TA97, Metabolic Activation: NONE, Method: PREINCUBATION) was “active; positive”; the mutagenic call (Test System: AMES SALMONELLA TYPHIMURIUM, Strain/Indicator: TA97, Metabolic Activation: RAT, LIVER, S-9, PHENOBARBITAL AND 5,6-BENZOFLAVONE, Method: PREINCUBATION) was “active; positive”; the mutagenic call under setting [5] is “inactive; negative”; the mutagenic call (Test System: AMES SALMONELLA TYPHIMURIUM, Strain/Indicator: TA98, Metabolic Activation: RAT, LIVER, S-9, PHENOBARBITAL AND 5,6-BENZOFLAVONE, Method: PREINCUBATION) is “inactive; negative”; the mutagenic call under setting [6] was “active; positive”; the mutagenic call (Test System: AMES SALMONELLA TYPHIMURIUM, Strain/Indicator: TA100, Metabolic Activation: RAT, LIVER, S-9, PHENOBARBITAL AND 5,6-BENZOFLAVONE, Method: PREINCUBATION) is “active; positive”. For the same molecule, the mutagenic call (Test System: AMES SALMONELLA TYPHIMURIUM, Strain/Indicator: TA102, Metabolic Activation: NONE, Method: PREINCUBATION) was “active; positive”; the mutagenic call (Test System: AMES SALMONELLA TYPHIMURIUM, Strain/Indicator: TA102, Metabolic Activation: RAT, LIVER, S-9, PHENOBARBITAL AND 5,6-BENZOFLAVONE, Method: PREINCUBATION) is “active; positive”; the mutagenic call (Test System: AMES SALMONELLA TYPHIMURIUM, Strain/Indicator: TA104, Metabolic Activation: NONE, Method: PREINCUBATION) is “active; positive”; the mutagenic call (Test System: AMES SALMONELLA TYPHIMURIUM, Strain/Indicator: TA104, Metabolic Activation: RAT, LIVER, S-9, PHENOBARBITAL AND 5,6-BENZOFLAVONE, Method: PREINCUBATION) was “active; positive”; the mutagenic call (Test System: AMES SALMONELLA TYPHIMURIUM, Strain/Indicator: TA1535, Metabolic Activation: NONE, Method: PREINCUBATION) was “inactive; negative”; the mutagenic call (Test System: AMES SALMONELLA TYPHIMURIUM, Strain/Indicator: TA1535, Metabolic Activation: RAT, LIVER, S-9, PHENOBARBITAL AND 5,6-BENZOFLAVONE, Method: PREINCUBATION) was “inactive; negative”. In addition, the mutagenic call is “inactive; negative” (Test System: AMES SALMONELLA TYPHIMURIUM, Strain/Indicator: TA1537, Metabolic Activation: NONE, Method: PREINCUBATION); “active; positive” (Test System: AMES SALMONELLA TYPHIMURIUM, Strain/Indicator: TA1537, Metabolic Activation: RAT, LIVER, S-9, PHENOBARBITAL AND 5,6-BENZOFLAVONE, Method: PREINCUBATION); “inactive; negative” (Test System: AMES SALMONELLA TYPHIMURIUM, Strain/Indicator: TA1538, Metabolic Activation: NONE, Method: PREINCUBATION); “inactive; negative” (Test System: AMES SALMONELLA TYPHIMURIUM, Strain/Indicator: TA1538, Metabolic Activation: RAT, LIVER, S-9, PHENOBARBITAL AND 5,6-BENZOFLAVONE, Method: PREINCUBATION); “active; positive” (Test System: AMES SALMONELLA TYPHIMURIUM, Strain/Indicator: TA2637, Metabolic Activation: NONE, Method: PREINCUBATION); “active; positive” (Test System: AMES SALMONELLA TYPHIMURIUM, Strain/Indicator: TA2637, Metabolic Activation: RAT, LIVER, S-9, PHENOBARBITAL AND 5,6-BENZOFLAVONE, Method: PREINCUBATION).
As to `COC(=O)c1cc2c(c3c1ccc1c(OC)cccc13)OCO2`, the mutagenic call runs as follows: under setting [1], “active; positive”; under setting [3], “active; positive”; (Test System: AMES SALMONELLA TYPHIMURIUM, Strain/Indicator: TA102, Metabolic Activation: NONE, Method: STANDARD PLATE) “active; positive”; (Test System: AMES SALMONELLA TYPHIMURIUM, Strain/Indicator: TA1537, Metabolic Activation: NONE, Method: STANDARD PLATE) “active; positive”; (Test System: AMES SALMONELLA TYPHIMURIUM, Strain/Indicator: TM677/8-AZAGUANINE, Metabolic Activation: NONE, Method: SUSPENSION/PLATE) “inactive; negative”.
In the case of `O=C(/C=C/c1ccc(F)cc1)c1ccccc1`, the mutagenic call reads like this: under setting [1], “inactive; negative”; under setting [2], “inactive; negative”; under setting [3], “inactive; negative”; under setting [4], “inactive; negative”.
Turning to `ClCc1c2ccccc2c2ccc3cccc4ccc1c2c43`, the mutagenic call runs as follows: under setting [1], “inactive; negative”; under setting [3], “inactive; negative”.
For the molecule `CN(N=O)C(=O)Nc1ccc(Cl)cc1`, the mutagenic call (End Point: IN VITRO CHROMOSOMAL ABERRATIONS, Test System: CHINESE HAMSTER V79-E CELLS, Metabolic Activation: NONE) is “active; weakly positive”.
As to `O=[N+]([O-])c1ccccc1S(=O)(=O)O`, the mutagenic call under setting [5] was “inactive; negative”; the mutagenic call (Test System: AMES SALMONELLA TYPHIMURIUM, Strain/Indicator: TA98, Metabolic Activation: RAT, LIVER, S-9, KANECHLOR 500, Method: PREINCUBATION) is “inactive; negative”; the mutagenic call under setting [6] was “inactive; negative”; the mutagenic call (Test System: AMES SALMONELLA TYPHIMURIUM, Strain/Indicator: TA100, Metabolic Activation: RAT, LIVER, S-9, KANECHLOR 500, Method: PREINCUBATION) was “inactive; negative”.
